The subject of assay [1] is Pacific oyster (Crassostrea gigas) oocytes. The settings on record: Example 2.7.
Experimental: Approximately 2.2 million unfrozen or thawed oocytes from 8 individuals were added to 500 mL of SW and fertilised at a ratio of 100 sperm per oocyte. After a contact time of ˜12 min, the fertilised oocytes were transferred into tanks containing 150 L of SW and 1 mg L^−1 EDTA at 23° C. After 24 h, the tanks were drained through a 45-μm mesh and subsamples taken to determine the percentage of oocytes reaching D-larvae in each treatment.
The number of D-larvae was standardized for each female so that the four rearing tanks (2×cryopreserved and 2×unfrozen) all contained the same number of larvae. The larvae were resuspended in 2.5 L tanks in a continuous exchange larval rearing system and fed a mixed diet of Chaetoceros calcitrans and Isochrisis galbana (A Janke, H Kaspar, N King, S Foster, Abstracts of the World Aquaculture Society Conference, 1st-4th Mar. 2004, Hawaii, World Aquaculture Society, Louisiana State University, Baton Rouge, La., (2004), 312). Tanks were cleaned and larvae screened every second day to remove dead, abnormal or slow-growing larvae. Competent larvae were induced to metamorphose by bath application of 10^−4 M epinephrine (S L Coon, D B Bonar, Journal of Experimental Marine Biology and Ecology, (1985), 94, 211) for 3 to 5 h. […] The number of D-larvae in each treatment that developed to eyed larvae stage and spat was determined. […]
The test system is the same in assay [2]. The assay can be described thus: Post-thaw fertilisation assay of cryopreserved oocytes. Type of assay: cell-based. The conditions noted are these: for post-thaw fertilisation rate: Example 2.9, ten percent EG. As for the experimental part: Cryopreservation straws (0.25 cc, IMV, France) were then loaded with the solution containing oocytes and CPA, sealed with PVC powder and laid flat on a rack. The total time at room temperature was 20 min. Loaded straws were placed into Cryogenesis freezers (Cryologic Pty Ltd, Mt Waverly, Australia) and held at 0° C. for 5 min. […] Following the hold period, the freezers were then programmed to cool at various rates (standard: 1° C. min^-1) to -35° C. at which temperature the straws were plunged into liquid nitrogen and stored. After up to 24 h storage, the straws were thawed by placing into a water bath at 28° C. […] After dilution, the thawed oocytes along with unfrozen oocytes from the same batch (controls) were fertilised using the miniaturised fertilisation assay described previously ([…] Smith, R D Roberts, A R Janke, […] Pugh, S C Webb, N G King, Aquaculture (2004) 242, 271). […] Duplicate assays were conducted on each straw and assays included a negative control where no sperm were added to check for parthenogenetic activation. […] All CPA concentrations are the final post-dilution levels. Fertilisation results from each experiment were used to determine factors to be evaluated in subsequent experiments. […] Each pool comprised oocytes from 4 to 8 oysters. […] Three new pools were selected from 11 available pools for Examples 2.4 to 2.6.

Assay [3] has as its system Pacific oyster oocytes. The settings on record: Me2SO as CPA; cited from earlier work.
The subject of assay [4] is Pacific oyster oocytes. The conditions noted are these: Me2SO as CPA in the presence of trehalose; cited from earlier work.
The test system of assay [5] is Eastern Oyster (Crassostrea virginica) oocytes. The conditions noted are these: Me2SO or sucrose as CPA; cited from earlier work.

Data on 5 molecules can be found in US20060252026A1, “Cryopreservation method for bivalve oocytes” (priority 2005, published 2006).

Regarding `OCCO` [EG, ethylene glycol], the “percentage of fertilised oocytes developing to D-larvae, fresh versus cryopreserved” value in assay [1] (P=0.126) is reported as “no significant difference”. The “proportion of larvae developing to eyed larvae or spat, fresh versus cryopreserved” value in assay [1] (P=0.516 and 0.418) is reported as “no difference”. In addition, the post-thaw fertilisation is recorded as 79% in assay [2] (Example 2.10, 10% EG in MQ, thawed in water bath at 3° C.); 71% in assay [2] (Example 2.10, 10% EG in MQ, thawed in water bath at 28° C.); 61% in assay [2] (Example 2.10, 10% EG in MQ, thawed in water bath at 60° C.); 52% in assay [2] (Example 2.10, 10% EG in MQ, thawed in water bath at 90° C.); 5% in assay [2] (Example 2.8, 10% EG in MQ, plunging at −25° C.); 72% in assay [2] (Example 2.8, 10% EG in MQ, plunging at −35° C.). The molecule further came in with a post-thaw fertilisation in assay [2] (Example 2.8, 10% EG in MQ, plunging at −45° C.) of 76%. Also, the oocyte fertilisation post-thaw result in assay [2] (Example 2.1, 100% EG (so in the source) in MQ with 0.85% w/v PVP, standard freezing/thawing) was “Highest fertilisation rates”; in assay [2] (Example 2.7, 10% EG in MQ, no PVP, −10° C. hold, 0.3° C. min−1 to −35° C., mean±se) it was 52.1±1.2%. Besides, the “oocyte fertilisation post-thaw, effect of holding temperature” value in assay [2] (Example 2.5, 10% EG in MQ, holding for 5 min at either −10 or −12° C.) is reported as “best results”. Besides, the “oocyte fertilisation post-thaw, effect of freezing rate” value in assay [2] (Example 2.6, 10% EG in MQ, slowest post-hold cooling rate (0.3° C. min−1)) is on record as “best results”. The post-thaw fertilisation rate in assay [2] (held at −16° C. for 5 min) was found to be 31%; in assay [2] (held at −20° C. for 5 min) it was 3%.
On to `C[S+](C)[O-]` [Me2SO, dimethyl sulfoxide], for which, in assay [3], the “outcome of cryopreservation attempt” value was “entirely unsuccessful”. In assay [4], the “fertilisation achieved with the thawed oocytes” value is “less than 0.5%” and the “thawed oocytes developing to D-larvae” value is listed as “less than 0.005%”. In assay [5], the “fertilisation of oocytes after cryopreservation” value was “none of the oocytes were able to be fertilised” and the “oocytes staining as live after cryopreservation” value is 7%. In addition, the oocyte fertilisation post-thaw entry in assay [2] (Example 2.1, 15% Me2SO in MQ with 0.85% w/v PVP, standard freezing/thawing) is “Highest fertilisation rates”.
With `CO` [methanol], in assay [2] (Example 2.1, methanol 2.5, 5, 10% v/v in MQ with 0.85% w/v PVP, standard freezing/thawing), the oocyte fertilisation post-thaw entry is “No oocytes were fertilised”.
As for `OC[C@H]1O[C@@](CO)(O[C@H]2O[C@H](CO)[C@@H](O)[C@H](O)[C@H]2O)[C@@H](O)[C@@H]1O` [sucrose], in assay [5], the “fertilisation of oocytes after cryopreservation” value was “none of the oocytes were able to be fertilised” and the “oocytes staining as live after cryopreservation” value is listed as 7%.
Consider `OC[C@H]1O[C@H](O[C@H]2O[C@H](CO)[C@@H](O)[C@H](O)[C@H]2O)[C@H](O)[C@@H](O)[C@@H]1O` [trehalose], for which the “effect on oocyte fertilisation post-thaw” value in assay [2] (Example 2.2, trehalose above 0.1 M added to 10% EG in MQ) is recorded as “significant reduction in fertilisation”.
